From patent publication US20220213156A1, “Peptides for use in therapy or prophylaxis of Herpesviridae-infections” (priority 2019, published 2022)
Where two headings read alike, the source gives them in different places. Residues, ends and D or L forms follow the SMILES beside them.

Tests used:
zebrafish embryos = format: in vivo; details: exposure from 6-7 hpf
Procedure: To test HD5 (1-9) (SEQ ID No. 1) for toxicity and to assess its effect on embryonic development in zebrafish, embryos obtained from natural crosses of wildtype TE fish were used. After mating, embryos were incubated at 28° C. until 6 h postfertilization (hpf). Triplicates of five embryos each were then placed in wells of a 96-well plate containing 200 μl of different peptide concentrations. HD5 (1-9) (SEQ ID No. 1) dissolved in PBS was diluted in normal embryo medium (250 mg/L Instant Ocean salt, 1 mg/L methylene blue in reverse osmosis water adjusted to pH 7 with NaHCO3) (Muller et al., “Differential diffusivity of Nodal and Lefty underlies a reaction-diffusion patterning system”; Science 336 (6082):721-724, 2012). The concentrations tested were 25 μM, 75 μM, 125 μM and 250 μM, and the concentration of PBS solvent was adjusted for each control group. At peptide concentrations of 75 μM and above we observed granulae in some wells, which could represent peptide accumulations. As a control, embryos were additionally incubated in 25 μg/ml cycloheximide (C4859, Sigma-Aldrich). After 13 hpf, 24 hpf and 48 hpf a microscopic phenotype analysis was performed. For each time point embryos were automatically imaged using an ACQUIFER Imaging Machine. For the phenotype analysis at 48 hpf, the larvae were manually dechorionated and anaesthetized with 2% tricaine methane-sulfonate (A5040-25G, Sigma-Aldrich). Images were acquired on an Axio Zoom.V16 microscope (ZEISS).
As a first test of HD5 (1-9) (SEQ ID No. 1) toxicity in vivo, as well as to elucidate potential effects of the peptide on embryonic development, experiments with zebrafish embryos were performed (He et al., 2014). Embryos were treated with HD5 (1-9) (SEQ ID No. 1) at concentrations of 25 μM, 75 μM, 125 μM and 250 μM starting at 6-7 h post fertilization (hpf), which is the time point recommended by pharmaceutical company-utilized assays to assess toxic effects of compounds on early embryonic development (Ball et al., 2014). Phenotypes were analyzed at 13.24 and 48 hpf (data not shown). […] Impaired development at 250 μM peptide exposure was also evident over the whole observation period, leading to the death of 11 embryos and 4 embryos having severe developmental delays by 48 hpf.

HCMV TB40/E-ΔUL16-eGFP = test: Infection assay on different cell types (HFF, ARPE-19, THP-1) with TB40E-ΔUL16-EGFP, IE+/DAPI+; format: cell-based, Human Cytomegalovirus; details: 40 h
Procedure: For the infection assays, the cells were sown in 96-well plates. Human foreskin fibroblasts (HFF) and ARPE-19 cells (Adult Retinal Pigment Epithelial cell line-19) were seeded with 10 000 cells in 200 μl medium per well, macrophages with 20 000 cells in 200 μl medium per well and THP with 50 000 cells in 200 μl per well. The cells were incubated overnight at 37° C. and 5% CO2 and treated the following day. A medium change to P/S-free medium was performed to avoid interaction between the antibiotics used and the peptide sequences. Afterwards the corresponding peptides were added in different concentrations and immediately afterwards the virus, the final volume was 100 μl per well. The virus of the strain TB40/E-ΔUL16-eGFP was used. TB40-ΔUL16-eGFP is a derivative of the strain TB40, in which the majority of the open reading frame UL16 has been replaced by the open reading frame of eGFP, essentially as described in detail for a homologous mutant of strain AD169 (Tischer et al., “Two-step red-mediated recombination for versatile high-efficiency markerless DNA manipulation in Escherichia coli”, Biotechniques, (2006), 40(2):191-7). […] The required volume of the virus stock was calculated using the titer according to the following formula: […]

[1] = system: TB40-BACKL7-UL32EGFP-UL 100mCherry; test: Attachment of fluorescently tagged viral particles to HFF; format: cell-based, Human Cytomegalovirus; details: HFF preincubated with peptide 1 h, 6 h after infection, data not shown
Procedure: In additional experiments, […] (encoding for pp150) was GFP (green fluorescence protein)-tagged, UL100 (encoding for gM) was mCherry-tagged. This allowed discrimination between enveloped particles, which were EGFP and mCherry-positive and appeared yellow, and non-enveloped particles, which were only EGFP-positive and appeared green.
HFF were preincubated with peptide in the corresponding concentration 1 h at 37° C. and then infected TB40-BACKL7-UL32EGFP-UL 100mCherry. After 6 h of incubation, cells were fixed and stained with DAPI.

**Q.** How did the embryonic development (zebrafish embryos; 25 μM or 75 μM) turn out when `C[C@H](N)C(=O)N[C@H](C(=O)N[C@@H](CS)C(=O)N[C@@H](Cc1ccc(O)cc1)C(=O)N[C@@H](CS)C(=O)N[C@@H](CCCNC(=N)N)C(=O)N[C@H](C(=O)NCC(=O)N[C@@H](CCCNC(=N)N)C(=O)O)[C@@H](C)O)[C@@H](C)O` [HD5 (1-9), ATCYCRTGR] (H-ATCYCRTGR-OH; N-terminus and C-terminus assumed) was run?
**A.** The embryonic development was “developed normally”.

**Q.** What about the embryonic development (zebrafish embryos; 125 μM) of the same compound?
**A.** The embryonic development was “approximately half of the embryos having no alterations”.

**Q.** And the “death of embryos by 48 hpf” value (zebrafish embryos; 250 μM)?
**A.** The value was 11 embryos.

**Q.** What about the “embryo death by 13 hpf” value (zebrafish embryos; 250 μM) of the same compound?
**A.** Its value is “half of the embryos had died”.

**Q.** What about the “embryos having severe developmental delays by 48 hpf” value (zebrafish embryos; 250 μM) of the same compound?
**A.** Its value is 4 embryos.

**Q.** What about the “concentration from which HCMV infection is inhibited” value (HCMV TB40/E-ΔUL16-eGFP) of the same compound?
**A.** The value was at least 50 µM.

**Q.** What about the “attachment of viral particles” value [1] of the same compound?
**A.** The value was “blocks the attachment of viral particles”.
